Consider three molecules from US20110151534A1, “[…] ORGANIC COMPOUNDS USING R[…] […] HALIDE TRANSFERASE” (priority 2007, published 2011).

Data set [1] concerns the target methyl halide transferase (Batis maritima, UniProt Q9ZSZ7). The conditions noted are these: halide ion as substrate; Attieh et al. 1995, Ni and Hager 1999; cited from earlier work.
The test system of a further data set is S. cerevisiae W303a. Description: Methyl iodide toxicity assay in yeast. In kind it is cell-based, Saccharomyces cerevisiae. The conditions noted are these: OD600 at 24 hours of growth, commercially available CH3I added. From the text:
(§1) FIG. 11A-D: Methyl iodide production in recombinant S. cerevisiae. FIG. 11A. CH3I production pathway. The B. maritima MHT is expressed with a N-terminal vacuole targeting tag. The […] MHT methylates iodide ions using SAM as a methyl donor. FIG. 11B, CH3I measured in culture headspace over time. Activity on glucose-grown cells is shown. FIG. 11C, CH3I yields in grams per liter of culture per day. Values for the culturable red algae E. muricata are taken from the literature. Yields from B. maritima MHT-expressing E. coli and S. cerevisiae are calculated by comparison to standard curves. FIG. 11D, CH3I toxicity in yeast. Exponential phase cultures were diluted to an OD600 of 0.05 and commercially available CH3I was added. OD600 was measured at 24 hours of growth. The W303a lab strain is shown in filled boxes, the DNA methylation-sensitive RAD50Δ mutant is shown in open boxes.
(§2) Individual colonies were inoculated in YP media with 2% glucose and grown overnight. Cultures were diluted to an OD600 of 0.05 and methyl iodide was added to the specified amount. […] OD600 was measured by spectrometry with YP media used as a blank. Each data point was performed in triplicate. The RAD50Δ mutant was obtained from the Saccharomyces Genome Deletion Project (Invitrogen).

A further data set deals with RAD50Δ mutant. Format: cell-based, Saccharomyces cerevisiae. The note with it: RAD50Δ mutant compared with W303a.
From the text: as §1, §2

Sequence of methyl halide transferase (Q9ZSZ7 1-230): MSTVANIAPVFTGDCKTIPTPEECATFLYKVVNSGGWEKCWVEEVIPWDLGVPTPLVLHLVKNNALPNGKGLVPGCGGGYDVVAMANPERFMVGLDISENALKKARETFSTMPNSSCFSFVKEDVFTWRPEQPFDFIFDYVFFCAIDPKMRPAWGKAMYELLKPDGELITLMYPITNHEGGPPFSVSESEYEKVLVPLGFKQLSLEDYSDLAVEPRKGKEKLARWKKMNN

For `[Br-].[K+]` [Br^−, bromide], in data set [1], the Km – broadly, the substrate concentration at which the rate is half of its maximum – is 18.5 mM.
As for `I` [I^−, iodide], in data set [1], the Km is 8.5 mM.
For the molecule `CI` [methyl iodide], in the data set with S. cerevisiae W303a, the “level up to which yeast were resistant to deleterious methylating effects of methyl iodide” value was more than 5000 µg/mL. Also, the “sensitivity to methyl iodide” value in the data set with RAD50Δ mutant is reported as “increased sensitivity”.
